Results reported in patent US20230255953A1, “USE OF ROLUPERIDONE IN PREVENTING RELAPSE IN SCHIZOPHRENIA PATIENTS” (Minerva Neurosciences, Inc., priority 2022, published 2023).

System: patients with negative symptoms of schizophrenia
Assay: Study #1 (MIN-101C03) Phase 2b: PANSS-derived scores (PSM, NSFS, total, subscales)
Type: in vivo, human
Settings: for Change from Baseline LS Mean: 3-Factor General Psychopathology Subscale Score / Change from Baseline LS Mean: 3-Factor Negative Subscale Score / Change from Baseline LS Mean: 3-Factor Positive Subscale Score / Change from Baseline LS Mean: 5-Factor Activation Score (PSM) / Change from Baseline LS Mean: 5-Factor Autistic Preoccupation Score (PSM) / Change from Baseline LS Mean: 5-Factor Dysphoric Mood Score (PSM) / Change from Baseline LS Mean: 5-Factor Positive Score (PSM) / Change from Baseline LS Mean: NSFS (post-hoc) / Change from Baseline LS Mean: PANSS Negative Factor Score (pentagonal structure model) / Change from Baseline LS Mean: PANSS Total Score / Effect Size vs Placebo: 3-Factor General Psychopathology Subscale Score / Effect Size vs Placebo: 3-Factor Negative Subscale Score / Effect Size vs Placebo: 3-Factor Positive Subscale Score / Effect Size vs Placebo: 5-Factor Activation Score (PSM) / Effect Size vs Placebo: 5-Factor Autistic Preoccupation Score (PSM) / Effect Size vs Placebo: 5-Factor Dysphoric Mood Score (PSM) / Effect Size vs Placebo: 5-Factor Positive Score (PSM) / Effect Size vs Placebo: NSFS (post-hoc) / Effect Size vs Placebo: PANSS Negative Factor Score (pentagonal structure model) / Effect Size vs Placebo: PANSS Total Score: ITT
Source text: “PANSS”, as used herein, refers to the positive and negative syndrome scale, which is used by physicians and clinicians to measure the severity of the symptoms in a schizophrenia patient. The scale is divided into three parts, a positive scale, which provides a “PANSS positive subscore”, a negative scale, which provides a “PANSS negative subscore”, and general psychopathology scale. The sum of these three parts provides a PANSS total score, which ranges from 30 to 210 (where higher scores indicate more severe symptoms). (Kay, S. R., et al. “The positive and negative syndrome scale (PANSS) for schizophrenia,” Schizophr Bulletin, 13(2), 261-276 (1987)).
As used herein, PANSS Marder's negative symptoms factor score (“NSFS”), refers to selection of seven of the PANSS items used by physicians and clinicians to measure the severity of the negative symptoms in a schizophrenia patient. (See Tables 5A and 5B.) The NSFS total score ranges from 7 to 49. (Marder, S. R. et al. “The effects of risperidone on the five dimensions of schizophrenia derived by factor analysis: combined results of the North American trials,” J Clin Psychiatry. 1997; 58:538-46.)
The PANSS was designed to be used in patients with schizophrenia to measure the overall severity of schizophrenic symptoms. The scale has been validated in different cultures and languages and is reliable and acceptable to regulatory health authorities as a primary scale to determine efficacy of intervention in schizophrenia. The name refers to the 2 types of symptoms in schizophrenia, as defined by the American Psychiatric Association: positive symptoms, which refer to an excess or distortion of normal functions (e.g., hallucinations and delusions), and negative symptoms, which represent a diminution or loss of normal functions.
The patient is rated from 1 to 7 on 30 different symptoms based on the interview as well as reports of family members or primary care hospital workers. The original PANSS included 3 groups of symptoms and subscale scores Positive, Negative, and General Psychopathology. Since the inception of PANSS, investigators have proposed additional grouping (structures) of PANSS such as the Marder structure (Marder, S. R. et al. “Issues and perspectives in designing clinical trials for negative symptoms in schizophrenia: consensus statements,” Schizophrenia Bulletin Open. 2020; 1(1). doi:10.1093/schizbullopen/sgz001) and the White structure (White, L. et al. “Empirical assessment of the factorial structure of clinical symptoms in schizophrenia”. Psychopathology. 1997; 30263-274).
The PANSS was assessed at the time points described in Table 4.
The PANSS-derived endpoints used in these studies and the integrated analyses are described in Table 5A and a summary of the individual PANSS items used by physicians and clinicians to measure the severity of the symptoms in a schizophrenia patient is provided in Table 5B. The scale is divided into three parts, a positive scale, which provides a “PANSS positive subscore”, a negative scale, which provides a “PANSS negative subscore”, and general psychopathology scale. The sum of these three parts provides a PANSS total score, which ranges from 30 to 210 (where higher scores indicate more severe symptoms). (See Kay, S. R., et al. “The positive and negative syndrome scale (PANSS) for schizophrenia,” Schizophr Bulletin, 13(2), 261-276 (1987) and Gopal, S., et al. “Improvement of Negative Symptoms in Schizophrenia with Paliperidone Palmitate 1-Month and 3-Month Long-Acting Injectables: Results from a Phase 3 Non-Inferiority Study” Neuropsychiatric Disease and Treatment, 681-690, DOI: 10.2147/NDT.5226296, both of which are incorporated by reference.) […]

Substance: 1H-Isoindol-1-one,2-[ [1-[2-(4-fluorophenyl)-2-oxoethyl]-4-piperidinyl]methyl]-2,3-dihydro-, hydrochloride, hydrate (1:1:2) [Roluperidone]
- Effect Size vs Placebo: 20% reduction in NSFS responders (32 mg QD, Week 12 DB): 0.06
- Effect Size vs Placebo: 30% reduction in NSFS responders (32 mg QD, Week 12 DB): 0
- Number of Patients with 20% reduction in NSFS at Week 12 (32 mg QD, Week 12 DB): 15/51
- Number of Patients with 30% reduction in NSFS at Week 12 (32 mg QD, Week 12 DB): 2/51
- Patients with 20% reduction in NSFS at Week 12 (%) (32 mg QD, Week 12 DB): (29%)
- Patients with 30% reduction in NSFS at Week 12 (%) (32 mg QD, Week 12 DB): (4%)
- Change from Baseline LS Mean: 3-Factor General Psychopathology Subscale Score (32 mg QD, Week 12 DB): −1.07
- Change from Baseline LS Mean: 3-Factor Negative Subscale Score (32 mg QD, Week 12 DB): −3.35
- Change from Baseline LS Mean: 3-Factor Positive Subscale Score (32 mg QD, Week 12 DB): 0.46
- Change from Baseline LS Mean: 5-Factor Activation Score (PSM) (32 mg QD, Week 12 DB): −0.05
- Change from Baseline LS Mean: 5-Factor Autistic Preoccupation Score (PSM) (32 mg QD, Week 12 DB): −0.85
- Change from Baseline LS Mean: 5-Factor Dysphoric Mood Score (PSM) (32 mg QD, Week 12 DB): −0.32
- Change from Baseline LS Mean: 5-Factor Positive Score (PSM) (32 mg QD, Week 12 DB): 0.58
- Change from Baseline LS Mean: NSFS (post-hoc) (32 mg QD, Week 12 DB): −3.43
- Change from Baseline LS Mean: PANSS Negative Factor Score (pentagonal structure model) (32 mg QD, Week 12 DB): −3.07
- Change from Baseline LS Mean: PANSS Total Score (32 mg QD, Week 12 DB): −3.66
- Effect Size vs Placebo: 3-Factor General Psychopathology Subscale Score (32 mg QD, Week 12 DB): 0.23
- Effect Size vs Placebo: 3-Factor Negative Subscale Score (32 mg QD, Week 12 DB): 0.54
- Effect Size vs Placebo: 3-Factor Positive Subscale Score (32 mg QD, Week 12 DB): 0.16
- Effect Size vs Placebo: 5-Factor Activation Score (PSM) (32 mg QD, Week 12 DB): 0.44
- Effect Size vs Placebo: 5-Factor Autistic Preoccupation Score (PSM) (32 mg QD, Week 12 DB): 0.08
- Effect Size vs Placebo: 5-Factor Dysphoric Mood Score (PSM) (32 mg QD, Week 12 DB): 0.11
- Effect Size vs Placebo: 5-Factor Positive Score (PSM) (32 mg QD, Week 12 DB): −0.13
- Effect Size vs Placebo: NSFS (post-hoc) (32 mg QD, Week 12 DB): 0.61
- Effect Size vs Placebo: PANSS Negative Factor Score (pentagonal structure model) (32 mg QD, Week 12 DB): 0.45
- Effect Size vs Placebo: PANSS Total Score (32 mg QD, Week 12 DB): 0.34
- Effect Size vs Placebo: 20% reduction in NSFS responders (64 mg QD, Week 12 DB): 0.17
- Effect Size vs Placebo: 30% reduction in NSFS responders (64 mg QD, Week 12 DB): 0.15
- Number of Patients with 20% reduction in NSFS at Week 12 (64 mg QD, Week 12 DB): 18/54
- Number of Patients with 30% reduction in NSFS at Week 12 (64 mg QD, Week 12 DB): 7/54
- Change from Baseline LS Mean: 3-Factor General Psychopathology Subscale Score (64 mg QD, Week 12 DB): −2.58
- Change from Baseline LS Mean: 3-Factor Negative Subscale Score (64 mg QD, Week 12 DB): −3.82
- Change from Baseline LS Mean: 3-Factor Positive Subscale Score (64 mg QD, Week 12 DB): 0.36
- Change from Baseline LS Mean: 5-Factor Activation Score (PSM) (64 mg QD, Week 12 DB): −0.17
- Change from Baseline LS Mean: 5-Factor Autistic Preoccupation Score (PSM) (64 mg QD, Week 12 DB): −1.21
- Change from Baseline LS Mean: 5-Factor Dysphoric Mood Score (PSM) (64 mg QD, Week 12 DB): −1.04
- Change from Baseline LS Mean: 5-Factor Positive Score (PSM) (64 mg QD, Week 12 DB): −0.25
- Change from Baseline LS Mean: NSFS (post-hoc) (64 mg QD, Week 12 DB): −3.9
- Change from Baseline LS Mean: PANSS Negative Factor Score (pentagonal structure model) (64 mg QD, Week 12 DB): −3.50
- Change from Baseline LS Mean: PANSS Total Score (64 mg QD, Week 12 DB): −5.83
- Effect Size vs Placebo: 3-Factor General Psychopathology Subscale Score (64 mg QD, Week 12 DB): 0.56
- Effect Size vs Placebo: 3-Factor Negative Subscale Score (64 mg QD, Week 12 DB): 0.70
- Effect Size vs Placebo: 3-Factor Positive Subscale Score (64 mg QD, Week 12 DB): 0.20
- Effect Size vs Placebo: 5-Factor Activation Score (PSM) (64 mg QD, Week 12 DB): 0.49
- Effect Size vs Placebo: 5-Factor Autistic Preoccupation Score (PSM) (64 mg QD, Week 12 DB): 0.22
- Effect Size vs Placebo: 5-Factor Dysphoric Mood Score (PSM) (64 mg QD, Week 12 DB): 0.43
- Effect Size vs Placebo: 5-Factor Positive Score (PSM) (64 mg QD, Week 12 DB): 0.24
- Effect Size vs Placebo: NSFS (post-hoc) (64 mg QD, Week 12 DB): 0.78
- Effect Size vs Placebo: PANSS Negative Factor Score (pentagonal structure model) (64 mg QD, Week 12 DB): 0.57
- Effect Size vs Placebo: PANSS Total Score (64 mg QD, Week 12 DB): 0.57
- PANSS PSM negative factor score, course in OL period (OL period (placebo crossed over) and whole study): trend of improvement continued
